Assay results: patent US20150320787A1, “COBALAMIN COMPOSITIONS AND METHODS FOR TREATING OR PREVENTING MUCOSITIS” (OraHealth Corp., priority 2006, published 2015)

Assays:
[1] = Placebo-controlled test of adhering dissolving discs, one each day, in subjects with minor RAU at least monthly; format: in vivo, human; conditions: active group, seven subjects, discs with 500 mcg methylcobalamin, 30 discs, placebo discs with red food coloring
Description: (§1) Troches in the form of dissolving muco-adhesive tablets may be made by pressing powders including mucoadhesive hydrocolloids. A preferred form of such an adhering troche may be made by mixing dry powders consisting of 80 percent acacia gum (gum arabic) for adhesive and 20 percent xylitol for flavor, then adding up to 1 percent carboxymethylcellulose (CMC), to enhance mouth feel, moderate adhesiveness of the acacia gum, and slow dissolution, and about 500 micrograms of cobalamin. The tablet may be pressed into the shape shown in FIG. 3 for good adhesion to a tooth. Such a tablet is suitably about 8 mm in diameter and about 85 milligrams in weight.
(§2) The typical instruction to users is to stick a troche in their mouths, just before they go to sleep, between teeth and cheek, placing it on the tongue side of the teeth if the patient suffers particularly from ulcers on or under the tongue and otherwise placing it on the cheek side. In greater detail, the instructions state: “Use after brushing teeth, at least one disc per day, and allow to dissolve for 30 minutes with nothing else in your mouth. In an area of your mouth where you experience sores, use your tongue to hold the dimpled side of the disc against a tooth until it adheres. The disc will slowly dissolve over 10 to 40 minutes, releasing cobalamin which is absorbed directly into the mouth lining tissues. […]

[2] = Non-blinded test of active adhering dissolving discs in additional subjects; format: in vivo, human
Description: as §1, §2

What does the source list for C/C1=C2/[N-][C@H]([C@H](CC(N)=O)[C@@]2(C)CCC(=O)NC[C@@H](C)OP(=O)([O-])O[C@H]2[C@@H](O)[C@@H](n3cnc4cc(C)c(C)cc43)O[C@@H]2CO)[C@]2(C)N=C(/C(C)=C3N=C(/C=C4N=C1[C@@H](CCC(N)=O)C\4(C)C)[C@@H](CCC(N)=O)[C@]\3(C)CC(N)=O)[C@@H](CCC(N)=O)[C@]2(C)CC(N)=O.[CH3-].[Co+3] [methylcobalamin]?
subjects who reported a benefit (reduced frequency of minor RAU, reduced duration of ulcers, or reduced peak pain levels) [1]: 100%; time after stopping the discs until an ulcer with a pain level like before starting (mean) ([2]; five subjects who reported a benefit and stopped using the discs): 4.8 days; subjects who reported a benefit of using the discs ([2]; twenty-five additional non-blinded subjects, active discs with 500 mcg methylcobalamin): 96%
